{"source": "patent US20180074053A1", "about": "(priority 2016, published 2018)", "key": {"MrgprD^−/− (KO) mice": {"system": "MrgprD^−/− (KO) mice", "settings": "0.5 mg/g with 2 mg/g glucose oral; P<0.05 KO vs. WT", "procedure": "(§1) The mice were fasted overnight and their fasting glucose levels were measured. […] Blood glucose levels were measured at 30, 60, 90 and 120 minutes after glucose loading.\nas §1"}, "MRGD": {"molecular_target": "MRGD (Homo sapiens, UniProt Q8TDS7)", "sequence (Q8TDS7 whole entry)": "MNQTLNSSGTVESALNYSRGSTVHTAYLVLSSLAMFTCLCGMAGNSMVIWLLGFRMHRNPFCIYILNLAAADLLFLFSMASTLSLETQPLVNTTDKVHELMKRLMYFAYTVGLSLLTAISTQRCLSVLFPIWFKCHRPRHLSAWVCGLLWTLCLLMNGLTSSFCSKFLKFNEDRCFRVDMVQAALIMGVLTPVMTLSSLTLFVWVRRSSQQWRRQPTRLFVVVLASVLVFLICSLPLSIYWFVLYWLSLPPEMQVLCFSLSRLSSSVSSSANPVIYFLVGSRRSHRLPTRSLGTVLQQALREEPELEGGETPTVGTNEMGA", "assay": "Calcium mobilization in MRGD over-expressing cells", "assay_type": "cell-based", "set-up": "host or cells: ChemiScreen over-expressing cell line, given as 'HEK 293T cells (Chem-1, EMD Millipore)'", "settings": "at 5 mM, highest dose used; Example 4", "procedure": "Cells were grown in DMEM medium containing 10% FBS, 1× non-essential amino acids (Gibco #111450-040), 20 mM HEPES and 250 μg/mL Geneticin® (Gibco #10131-035). Cells were harvested with 0.25% Trypsin/EDTA (Gibco #25200-056), pelleted at 1,200×g for 6 minutes and resuspended in DMEM media described above minus Geneticin®. The cells were seeded at 4×10^4 cells/well/100 μL of a clear bottom/black 96-well plate and grown overnight. The calcium mobilization assays was performed using Screen Quest Fluo-8 Medium Removal Calcium Assay Kit (AAT Bioquest #36308) according to the manufacturer's protocol. Briefly, cells were washed with 100 μL volume of Hank's balanced salt solution, 20 mM HEPES, pH 7.4 and loaded with a buffer containing HBSS, 20 mM HEPES, 1× Pluronic F127 and the Fluo-8 NW dye. The cells were incubated for 30 minutes at 37° C. followed by a 30 minute room temperature incubation. Drug stocks were prepared at 100× concentration and diluted 1:33 in HBSS, 20 mM HEPES, pH 7.4 in a 96-well plate (Corning #3641). Calcium mobilization was measured using the FlexStation 3 (Molecular Devices) at excitation wavelength of 490 nm and emission wavelength of 525 nm. Fluorescence was measured for 180 seconds at 5 second intervals with the addition of compound at a 1:3 dilution after 15 seconds. Peak fluorescence values were calculated using SoftMax Pro 5 (Molecular Devices). The fluorescence values obtained from control wells without cells are subtracted from wells containing treated cells to correct for background. The ratio of fluorescence values of treated cells to vehicle control wells was used to calculate fold activity of the compounds.\nMRGD cells (EMD Millipore, MA) were treated with either β-alanine, or alamandine at various concentrations (FIG. 10) and calcium mobilization was monitored using a FlexStation 3 Microplate Reader (Molecular Devices) as described in Example 4."}, "[1]": {"system": "C57/BL/6J mice and diabetic mouse models", "settings": "previous studies (Zhang 2013; U.S. Pat. No. 8,664,177); cited from earlier work"}, "HUVEC cells": {"system": "HUVEC cells", "settings": "4 mM time course, 0.05-32.0 mM for 60 minutes; FIGS. 16, 17", "description": "Briefly, HUVEC cells, previously plated in 96-well plate, were washed and the media changed to DMEM with 3% FBS for overnight incubation and cell starvation. On the day of the experiment, the cells were incubated with DAF-FM diacetate (Molecular Probes, catalog #D23842) at the final concentration of 7-10 nM for 30 minutes. […] Every treatment was performed in triplicate. The fluorescence was detected starting at 10 min with exc/em of 495 nm/515 nm.\nThe background signal (fluorescence signal from cells that were not loaded with dye) was subtracted from the other measurements.\nBriefly, HUVEC cells, previously plated in 96-well plate, were washed and the media changed to DMEM with 3% FBS for overnight incubation and cell starvation. On the day of the experiment, the cells were incubated with DAF-FM diacetate (Molecular Probes, catalog #D23842) at the final concentration of 7-10 nM for 30 minutes. […] Every treatment was performed in triplicate. The fluorescence was detected 60 minutes with exc/em of 495 nm/515 nm."}}, "data": [{"smiles": "CC(C)C[C@@H](NC(=O)CNC(=O)CN)C(=O)O", "values": [{"measurement": "reduction of blood glucose levels in KO mice compared with WT mice (OGTT)", "setting": "MrgprD^−/− (KO) mice", "value": "significantly impaired"}, {"measurement": "calcium mobilization activity", "setting": "MRGD", "value": "active"}, {"measurement": "blood glucose", "setting": "[1]", "value": "lower blood glucose"}, {"measurement": "nitric oxide (NO) release", "setting": "HUVEC cells", "value": "Stimulates Nitric Oxide Release"}]}]}
